Assay results reported in publication PMC10508264, “Exploring the antioxidant, antimicrobial, cytotoxic and biothermodynamic properties of novel morpholine derivative bioactive Mn(II), Co(II) and Ni(II) complexes – combined experimental and theoretical measurements towards DNA/BSA/SARS-CoV-2 3CL^Pro” (RSC Medicinal Chemistry, 2023).

Assays:
[1] = Hydroxyl radical scavenging assay; assay type: biochemical; details: for % Inhibition, hydroxyl radical: 230 nm
EB–DNA = EB–DNA competitive fluorescence emission titration; assay type: binding; details: for KSV (SV method I), DNA / Kass (SV method II), DNA / Kq (SV method I), DNA: EB–DNA; for Kq (SV method I), DNA: τ0 = 10^−8 s; for Kapp (apparent binding constant): KEB = 10^7 M^−1 at 50 μM EB; for LWB method KLB: Lineweaver–Burk
Procedure: Titrations were performed for all tested compounds (1–200 μM) with pre-incubated EB-bound DNA and the intensity variations between 510 nm and 610 nm were carefully monitored in the presence and absence of DNA (200 μM) during the initial emission and excitation by EB.[31]
Fluorescence emission spectral titration is an efficient approach to evaluating the binding properties of DNA/BSA biomolecules. In general, the fluorescence of EB is quite weak in aqueous solution, but when it is bound to DNA, the fluorescence intensity rises. However, it is a well-known imperative intercalator and is more supportive in distinguishing the binding strength of non-fluorescence test substances. Also, the fluorescence emission spectra of the EB–DNA adduct were examined at 610 nm in the absence and presence of rising quantities of each test compound. When the complex concentration (0–240 μM) rises, the fluorescence intensity of the EB-bound DNA complex diminishes owing to the displacement of EB from CT-DNA. A notable reduction in the fluorescence emission intensity at 610 nm is observed (Fig. S26 ^† and Table 4). The photoelectron shift from DNA's guanine base to the excited states may be the cause of the frequency quenching in the emission of the test substance by DNA. […] Therefore, the competitive binding experiment can make use of EB as a fluorescent probe. […] This is further evidence that complexes (1–3) strongly bind intercalatively with DNA. The observed results agree well with the data from electronic absorption spectral measurements. Additionally, the experiment was extended to examine the binding properties between the test substance and BSA. BSA mostly contains three amino acid residues (tyrosine, tryptophan, and phenylalanine), which give it its inherent fluorescence. […] These two residues also have minimal quenching effects. Tryptophan in BSA fluoresces mostly because of a residue that is trapped inside a hydrophobic cavity. Therefore, it is crucial to model potential binding interactions with the metal complexes. […] The fluorescence intensity also reduces while the test substances (1–3) are steadily blended with the BSA solution, proving that complexes (1–3) interact with BSA via altering the protein's secondary structure, which also leads to an alteration in the tryptophan environment of BSA (Fig. S27 ^†). Furthermore, BSA structural similarities share 76% sequence identity with human serum albumin (HSA), the most prevalent protein in blood plasma that transports ions and proteins to cells and tissues. HSA is able to readily crystallize under the trivalent cations, but BSA has no ready crystallizing property. However, they consist of parallel physicochemical properties to each other.[74,75] Additionally, the Stern–Volmer eqn (12) and (13) were employed to analyze the data (Fig. S28 ^† and Table 4). Additionally, the kq values for DNA and BSA binding were acquired in the range of 1.1636–2.8863 × 10^12 and 2.6390–7.0774 × 10^12 mol^−1 s^−1, respectively. They are also much greater than the collision quenching constant value (2.0 × 10^10 mol^−1 s^−1). Therefore, it is assumed that the static quenching process was brought on by adduct construction between the test compounds and BSA rather than a dynamic collision. However, fluorescence spectroscopy is generally plagued by the inner filter effect (IFE), disturbing spectral analysis. The energizing ray is attenuated due to the highly concentrated solution sample. As a result, strong fluorescence is only seen on surfaces facing the excitation beam.

Aspergillus niger = assay: Agar disc diffusion, strain H; assay type: cell-based; design: Inhibition%: concentration or dose not given beside the values; details: for Diameter of clear zone inhibition: control 6 mm

SMILES	% Inhibition, hydroxyl radical ([1]; 40 µM) [%]	% Inhibition, hydroxyl radical ([1]; 80 µM) [%]	% Inhibition, hydroxyl radical ([1]; 120 µM) [%]	% Inhibition, hydroxyl radical ([1]; 160 µM) [%]	% Inhibition, hydroxyl radical ([1]; 200 µM) [%]	% Inhibition, hydroxyl radical ([1]; 240 µM) [%]	Scatchard analysis KSA (EB–DNA) [M⁻¹]	KSV (SV method I), DNA (EB–DNA) [M⁻¹]	Kass (SV method II), DNA (EB–DNA) [M⁻¹]	Kq (SV method I), DNA (EB–DNA) [M⁻¹ s⁻¹]	Kapp (apparent binding constant) (EB–DNA) [M⁻¹]	LWB method KLB (EB–DNA) [M⁻¹]	Inhibition% (Aspergillus niger) [%]	Diameter of clear zone inhibition (Aspergillus niger) [mm]	IC50 [1] [µM]
[Mn+2].[O-]c1ccccc1N=Cc1ccc(N2CCOCC2)cc1.[O-]c1ccccc1N=Cc1ccc(N2CCOCC2)cc1.c1ccc(-c2ccccn2)nc1 [(1)]	10.08	17.89	28.56	34.04	44.92	56.03	30094	16755	11954	1.6755e+12	5.926e+06	7149	50	12	
[Co+2].[O-]c1ccccc1N=Cc1ccc(N2CCOCC2)cc1.[O-]c1ccccc1N=Cc1ccc(N2CCOCC2)cc1.c1ccc(-c2ccccn2)nc1 [(2)]	08.02	15.24	26.23	36.41	46.17	56.85	33185	28863	32903	2.8863e+12	8.349e+06	13497	50	12	200
[Ni+2].[O-]c1ccccc1N=Cc1ccc(N2CCOCC2)cc1.[O-]c1ccccc1N=Cc1ccc(N2CCOCC2)cc1.c1ccc(-c2ccccn2)nc1 [(3)]	07.67	15.86	26.12	35.43	45.56	55.75	32363	16879	10350	1.6879e+12	7.34e+06	7786	50	12	
Oc1ccccc1N=Cc1ccc(N2CCOCC2)cc1 [(HL), 2-(4-morpholinobenzylideneamino)phenol]	07.26	14.43	25.52	33.86	40.73	50.68	19093	11636	9606	1.1636e+12	5.829e+06	6985	40	10	
